In ChEMBL document CHEMBL5233240, “hERG toxicity assessment: Useful guidelines for drug design” (Eur J Med Chem, 2020):
pIC50: −log10 of the molar value.

Target: Voltage-gated inwardly rectifying potassium channel KCNH2 (Homo sapiens, UniProt Q12809)
Assay: Inhibition of human ERG
Format: toxicity

Voltage-gated inwardly rectifying potassium channel KCNH2, sequence (Q12809 whole entry): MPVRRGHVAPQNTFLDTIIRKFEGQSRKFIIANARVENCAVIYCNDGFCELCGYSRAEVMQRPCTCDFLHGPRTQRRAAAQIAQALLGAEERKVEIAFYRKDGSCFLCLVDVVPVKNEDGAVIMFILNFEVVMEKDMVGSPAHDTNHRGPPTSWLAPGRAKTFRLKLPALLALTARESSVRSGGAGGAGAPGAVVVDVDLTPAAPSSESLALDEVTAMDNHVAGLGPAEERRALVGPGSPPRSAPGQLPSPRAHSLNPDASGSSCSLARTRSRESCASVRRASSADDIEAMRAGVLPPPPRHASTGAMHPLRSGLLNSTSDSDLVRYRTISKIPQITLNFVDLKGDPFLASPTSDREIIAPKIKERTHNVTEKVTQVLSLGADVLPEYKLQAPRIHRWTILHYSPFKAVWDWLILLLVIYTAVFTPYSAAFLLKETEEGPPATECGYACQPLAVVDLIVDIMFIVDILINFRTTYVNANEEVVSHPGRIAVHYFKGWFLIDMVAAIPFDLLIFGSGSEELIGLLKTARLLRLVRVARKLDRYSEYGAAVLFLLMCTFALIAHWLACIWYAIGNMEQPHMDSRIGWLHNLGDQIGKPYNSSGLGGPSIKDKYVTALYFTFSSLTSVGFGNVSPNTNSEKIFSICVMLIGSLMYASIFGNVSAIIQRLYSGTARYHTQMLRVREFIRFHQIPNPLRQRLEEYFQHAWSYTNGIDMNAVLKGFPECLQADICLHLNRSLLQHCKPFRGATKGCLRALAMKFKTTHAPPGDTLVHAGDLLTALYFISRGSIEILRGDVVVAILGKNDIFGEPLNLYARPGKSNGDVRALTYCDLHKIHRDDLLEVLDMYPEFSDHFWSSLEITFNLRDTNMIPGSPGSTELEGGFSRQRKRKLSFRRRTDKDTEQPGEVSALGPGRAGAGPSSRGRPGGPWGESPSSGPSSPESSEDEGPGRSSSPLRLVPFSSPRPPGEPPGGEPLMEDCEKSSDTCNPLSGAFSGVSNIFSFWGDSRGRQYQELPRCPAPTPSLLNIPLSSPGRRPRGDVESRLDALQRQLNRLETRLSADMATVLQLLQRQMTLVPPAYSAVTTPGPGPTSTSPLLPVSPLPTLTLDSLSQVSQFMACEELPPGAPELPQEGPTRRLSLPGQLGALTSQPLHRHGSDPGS

Structure (SMILES)	pIC50
N#Cc1ccc(Cn2cncc2CC[C@H]2CCN(Cc3cccc(Cl)c3)C2=O)cc1	6.36
N#Cc1ccc2cc1Oc1ccc3c(c1)[C@@H](CCC3)N1CC[C@H](C1)NCc1cncn1-2	5.15
